# Laboratory results published in patent US20240132484A1, “BROAD SPECTRUM ANTIVIRAL COMPOUNDS TARGETING THE SKI COMPLEX” (priority 2020, published 2024).
# “And” between values parts separate entries of the source, which are not always exact repeats. Equal entries are not always repeated. Where two headings read alike, the source gives them in different places.
# Legend:
# cells (nuclei count) = conditions: for Relative cell count to DMSO controls, Average 1 μM / Relative cell count to DMSO controls, Average 5 μM / Relative cell count to DMSO controls, Average 10 μM / Relative cell count to DMSO controls, Average 25 μM / Relative cell count to DMSO controls, Average 50 μM: toxicity data, 100=DMSO control; for Toxicity Data, Average, Mean: average of Exp 1-3 (SMW475, SMW477, SMW478); for Relative cell count to DMSO controls, Average (for correlation analysis): average value over the 5 tested concentrations (1 to 50 uM); for Toxicity Data: Average, Mean: average of Exp 1-3 (SMW454, SMW466, SMW480), n 9
# SARS2 = format: cell-based, SARS-CoV-2; conditions: for Percentage Inhibition Average 1 μM / Screening data (Relative infection to DMSO controls) Average 1 μM: SARS2, 1 μM; for Screening data (Relative infection to DMSO controls) Average 1 μM / Screening data (Relative infection to DMSO controls) Average 5 μM / Screening data (Relative infection to DMSO controls) Average 10 μM / Screening data (Relative infection to DMSO controls) Average 25 μM / Screening data (Relative infection to DMSO controls) Average 50 μM / Average (relative infection to DMSO over the 5 tested concentrations): 100=DMSO control; for Percentage Inhibition Average 5 μM / Screening data (Relative infection to DMSO controls) Average 5 μM: SARS2, 5 μM; for Percentage Inhibition Average 10 μM / Screening data (Relative infection to DMSO controls) Average 10 μM: SARS2, 10 μM; for Percentage Inhibition Average 25 μM / Screening data (Relative infection to DMSO controls) Average 25 μM: SARS2, 25 μM; for Percentage Inhibition Average 50 μM / Screening data (Relative infection to DMSO controls) Average 50 μM: SARS2, 50 μM; for Average (relative infection to DMSO over the 5 tested concentrations): SARS2, average over 1 to 50 uM; for Infection Data, Average, Mean: average of Exp 1-3 (SMW475, SMW477, SMW478)
# [1] = Exp 3 (SMW478), 1 uM, Greiner Celigo plates
# [2] = Exp 3 (SMW478), 5 uM, Greiner Celigo plates
# [3] = Exp 3 (SMW478), 10 uM, Greiner Celigo plates
compound,measurement,setting,value
COC(=O)c1csc(CN(CCN(C)C)Cc2ccccc2)c1 [SILCS30],"Relative cell count to DMSO controls, Average 1 μM",cells (nuclei count),108.24
same,"Relative cell count to DMSO controls, Average 5 μM",cells (nuclei count),110.62
same,"Relative cell count to DMSO controls, Average 10 μM",cells (nuclei count),102.59
same,"Relative cell count to DMSO controls, Average 25 μM",cells (nuclei count),104.38
same,"Relative cell count to DMSO controls, Average 50 μM",cells (nuclei count),86.57
same,"Toxicity Data, Average, Mean","cells (nuclei count); n 9, 1 uM",108.24%
same,"Toxicity Data, Average, Mean","cells (nuclei count); n 9, 5 uM",110.62%
same,"Toxicity Data, Average, Mean","cells (nuclei count); n 9, 10 uM",102.59%
same,"Toxicity Data, Average, Mean","cells (nuclei count); n 9, 25 uM",104.38%
same,"Toxicity Data, Average, Mean","cells (nuclei count); n 9, 50 uM",86.57%
same,"Relative cell count to DMSO controls, Average (for correlation analysis)",cells (nuclei count),102.48
same,SARS2 antiviral activity,SARS2,decrease in activity
same,Percentage Infection Relative to Appropriate DMSO Control with Avg Background Subtraction,"SARS2; Exp 1 (SMW475), 1 uM, single well",105.27% and 104.72% and 85.58%
same,Percentage Infection Relative to Appropriate DMSO Control with Avg Background Subtraction,"SARS2; Exp 1 (SMW475), 10 uM, single well",111.40% and 92.91% and 108.37%
same,Percentage Infection Relative to Appropriate DMSO Control with Avg Background Subtraction,"SARS2; Exp 1 (SMW475), 25 uM, single well",63.92% and 51.24% and 55.41%
same,Percentage Infection Relative to Appropriate DMSO Control with Avg Background Subtraction,"SARS2; Exp 1 (SMW475), 50 uM, single well",32.13% and 25.36% and 23.71%
same,Percentage Infection Relative to Appropriate DMSO Control with Avg Background Subtraction,"SARS2; Exp 2 (SMW477), 1 uM, single well",113.51% and 96.27% and 114.57%
same,Percentage Infection Relative to Appropriate DMSO Control with Avg Background Subtraction,"SARS2; Exp 2 (SMW477), 5 uM, single well",117.23% and 99.87% and 114.31%
same,Percentage Infection Relative to Appropriate DMSO Control with Avg Background Subtraction,"SARS2; Exp 2 (SMW477), 10 uM, single well",121.60% and 100.99% and 139.28%
same,Percentage Infection Relative to Appropriate DMSO Control with Avg Background Subtraction,"SARS2; Exp 2 (SMW477), 25 uM, single well",71.18% and 69.34% and 78.15%
same,Percentage Infection Relative to Appropriate DMSO Control with Avg Background Subtraction,"SARS2; Exp 2 (SMW477), 50 uM, single well",17.82% and 25.00% and 26.06%
same,Percentage Infection Relative to Appropriate DMSO Control with Avg Background Subtraction,SARS2; [1],81.75% and 100.71% and 99.49%
same,Percentage Infection Relative to Appropriate DMSO Control with Avg Background Subtraction,SARS2; [2],89.39% and 93.72% and 82.15%
same,Percentage Infection Relative to Appropriate DMSO Control with Avg Background Subtraction,SARS2; [3],73.78% and 69.60% and 68.94%
same,Percentage Infection Relative to Appropriate DMSO Control with Avg Background Subtraction,"SARS2; Exp 3 (SMW478), 25 uM, Greiner Celigo plates",79.03% and 71.83% and 64.72%
same,Percentage Inhibition Average 1 μM,SARS2,−0.21%
same,Screening data (Relative infection to DMSO controls) Average 1 μM,SARS2,100.21
same,Percentage Inhibition Average 5 μM,SARS2,15.19%
same,Screening data (Relative infection to DMSO controls) Average 5 μM,SARS2,84.81
same,Percentage Inhibition Average 10 μM,SARS2,1.46%
same,Screening data (Relative infection to DMSO controls) Average 10 μM,SARS2,98.54
same,Percentage Inhibition Average 25 μM,SARS2,32.80%
same,Screening data (Relative infection to DMSO controls) Average 25 μM,SARS2,67.20
same,Percentage Inhibition Average 50 μM,SARS2,75.16%
same,Screening data (Relative infection to DMSO controls) Average 50 μM,SARS2,24.84
same,Average (relative infection to DMSO over the 5 tested concentrations),SARS2,75.12
same,"Infection Data, Average, Mean","SARS2; n 9, 1 uM",100.21%
same,"Infection Data, Average, Mean","SARS2; n 9, 5 uM",84.81%
same,"Infection Data, Average, Mean","SARS2; n 9, 10 uM",98.54%
same,"Infection Data, Average, Mean","SARS2; n 9, 25 uM",67.20%
same,"Infection Data, Average, Mean","SARS2; n 9, 50 uM",24.84%
Cc1ccc(CN(CCN(C)C)Cc2ccc(CO)o2)s1 [SILCS13],"Toxicity Data: Average, Mean",cells (nuclei count); 1 uM,105.73%
same,"Relative cell count to DMSO controls, Average 1 μM",cells (nuclei count),105.73
same,"Toxicity Data: Average, Mean",cells (nuclei count); 5 uM,107.19%
same,"Relative cell count to DMSO controls, Average 5 μM",cells (nuclei count),107.19
same,"Toxicity Data: Average, Mean",cells (nuclei count); 10 uM,105.25%
same,"Relative cell count to DMSO controls, Average 10 μM",cells (nuclei count),105.25
same,"Toxicity Data: Average, Mean",cells (nuclei count); 25 uM,104.32%
same,"Relative cell count to DMSO controls, Average 25 μM",cells (nuclei count),104.32
same,"Toxicity Data: Average, Mean",cells (nuclei count); 50 uM,78.61%
same,"Relative cell count to DMSO controls, Average 50 μM",cells (nuclei count),78.61
same,"Relative cell count to DMSO controls, Average (for correlation analysis)",cells (nuclei count),100.22
same,"Percentage Infection Relative to DMSO Control, Average, Mean",SARS2,85.64% and 142.17% and 120.89% and 97.87% and 94.70%
same,Percentage Inhibition Average 1 μM,SARS2,5.30%
same,Screening data (Relative infection to DMSO controls) Average 1 μM,SARS2,94.70
same,Percentage Inhibition Average 5 μM,SARS2,2.13%
same,Screening data (Relative infection to DMSO controls) Average 5 μM,SARS2,97.87
same,Percentage Inhibition Average 10 μM,SARS2,−20.89%
same,Screening data (Relative infection to DMSO controls) Average 10 μM,SARS2,120.89
same,Percentage Inhibition Average 25 μM,SARS2,−42.17%
same,Screening data (Relative infection to DMSO controls) Average 25 μM,SARS2,142.17
same,Percentage Inhibition Average 50 μM,SARS2,14.36%
same,Screening data (Relative infection to DMSO controls) Average 50 μM,SARS2,85.64
same,Average (relative infection to DMSO over the 5 tested concentrations),SARS2,108.25
CCN(CC)CCN(Cc1ccccn1)Cc1ccc(C)o1 [SILCS36],"Relative cell count to DMSO controls, Average 1 μM",cells (nuclei count),87.6
same,"Relative cell count to DMSO controls, Average 5 μM",cells (nuclei count),84.91
same,"Relative cell count to DMSO controls, Average 10 μM",cells (nuclei count),88.15
same,"Relative cell count to DMSO controls, Average 25 μM",cells (nuclei count),91.83
same,"Relative cell count to DMSO controls, Average 50 μM",cells (nuclei count),63.21
same,"Toxicity Data, Average, Mean","cells (nuclei count); n 9, 1 uM",87.60%
same,"Toxicity Data, Average, Mean","cells (nuclei count); n 9, 5 uM",84.91%
same,"Toxicity Data, Average, Mean","cells (nuclei count); n 9, 10 uM",88.15%
same,"Toxicity Data, Average, Mean","cells (nuclei count); n 9, 25 uM",91.83%
same,"Toxicity Data, Average, Mean","cells (nuclei count); n 9, 50 uM",63.21%
same,"Relative cell count to DMSO controls, Average (for correlation analysis)",cells (nuclei count),83.14
same,Percentage Infection Relative to Appropriate DMSO Control with Avg Background Subtraction,"SARS2; Exp 1 (SMW475), 1 uM, Greiner Celigo plates",112.32% and 102.95% and 77.60%
same,Percentage Infection Relative to Appropriate DMSO Control with Avg Background Subtraction,"SARS2; Exp 1 (SMW475), 5 uM, Greiner Celigo plates",103.78% and 96.97% and 70.88%
same,Percentage Infection Relative to Appropriate DMSO Control with Avg Background Subtraction,"SARS2; Exp 1 (SMW475), 10 uM, Greiner Celigo plates",100.05% and 88.33% and 67.06%
same,Percentage Infection Relative to Appropriate DMSO Control with Avg Background Subtraction,"SARS2; Exp 1 (SMW475), 25 uM, Greiner Celigo plates",42.48% and 40.16% and 33.52%
same,Percentage Infection Relative to Appropriate DMSO Control with Avg Background Subtraction,"SARS2; Exp 2 (SMW477), 1 uM, Greiner Celigo plates",136.49% and 133.25% and 131.77%
same,Percentage Infection Relative to Appropriate DMSO Control with Avg Background Subtraction,"SARS2; Exp 2 (SMW477), 5 uM, Greiner Celigo plates",140.43% and 143.68% and 122.53%
same,Percentage Infection Relative to Appropriate DMSO Control with Avg Background Subtraction,"SARS2; Exp 2 (SMW477), 10 uM, Greiner Celigo plates",111.26% and 112.57% and 100.88%
same,Percentage Infection Relative to Appropriate DMSO Control with Avg Background Subtraction,"SARS2; Exp 2 (SMW477), 25 uM, Greiner Celigo plates",70.58% and 67.21% and 40.18%
same,Percentage Infection Relative to Appropriate DMSO Control with Avg Background Subtraction,SARS2; [1],116.69% and 121.41% and 101.10%
same,Percentage Infection Relative to Appropriate DMSO Control with Avg Background Subtraction,SARS2; [2],103.27% and 118.27% and 106.75%
same,Percentage Infection Relative to Appropriate DMSO Control with Avg Background Subtraction,SARS2; [3],99.80% and 128.16% and 117.51%
same,Percentage Inhibition Average 1 μM,SARS2,−14.84%
same,Screening data (Relative infection to DMSO controls) Average 1 μM,SARS2,114.84
same,Percentage Inhibition Average 5 μM,SARS2,−11.84%
same,Screening data (Relative infection to DMSO controls) Average 5 μM,SARS2,111.84
same,Percentage Inhibition Average 10 μM,SARS2,−2.85%
same,Screening data (Relative infection to DMSO controls) Average 10 μM,SARS2,102.85
same,Percentage Inhibition Average 25 μM,SARS2,42.56%
same,Screening data (Relative infection to DMSO controls) Average 25 μM,SARS2,57.44
same,Percentage Inhibition Average 50 μM,SARS2,72.63%
same,Screening data (Relative infection to DMSO controls) Average 50 μM,SARS2,27.37
same,Average (relative infection to DMSO over the 5 tested concentrations),SARS2,82.87
same,"Infection Data, Average, Mean","SARS2; n 9, 1 uM",114.84%
same,"Infection Data, Average, Mean","SARS2; n 9, 5 uM",111.84%
same,"Infection Data, Average, Mean","SARS2; n 9, 10 uM",102.85%
same,"Infection Data, Average, Mean","SARS2; n 9, 25 uM",57.44%
same,"Infection Data, Average, Mean","SARS2; n 9, 50 uM",27.37%
